Data as given in US3963706A, “Sulphamoylphenyl-imidazolidinones” (Ed. Geistlich Sohne A.G. fur Chemische Industrie, priority 1972, dated 1976).

Legend:
Grand Mal [1] = experiment: Electro shock test, rat; format: in vivo
From the text: (§1) In general, the majority of the available antiepileptic drugs are active against either Grand Mal or Petit Mal epilepsy but not against both forms.
(§2) As mentioned above, the compounds according to the present invention show interesting activity against both Grand Mal and Petit Mal forms of epilepsy. This activity is indicated respectively by the electro shock test and the Cardiazol shock test.

Grand Mal [2] = experiment: Electro shock test, mouse; format: in vivo
From the text: as §1, §2

Petit Mal = experiment: Cardiazol shock test; format: in vivo; settings: species not given
From the text: as §1, §2

[3] = format: in vivo; settings: up to 500 mg/kg
From the text: It will be noted that the ratio of ED50 /LD50 for the compounds according to the invention is particularly favourable.

SMILES	ED50 (Grand Mal [1]) [mg/kg]	ED50 (Grand Mal [2]) [mg/kg]	ED50 (Petit Mal) [mg/kg]	sedative activity [3]
NS(=O)(=O)c1ccc(N2CN(C3CCCCC3)CC2=O)c(Cl)c1 [Example 19, 1-Cyclohexyl-3-(2-chloro-4-sulphamoylphenyl)-imidazolidin-4-one]	25	10	200	–
NS(=O)(=O)c1ccc(N2C(=O)CN(c3ccccc3)C2=O)c(Cl)c1 [Example 8, 1-Phenyl-3-(2-chloro-4-sulphamoylphenyl)-hydantoin]	10	5	100	–
CC1C(=O)N(c2ccc(S(N)(=O)=O)cc2Cl)CN1c1ccccc1 (stereo not drawn) [Example 18, 5-Methyl-1-phenyl-3-(2-chloro-4-sulphamoylphenyl)-imidazolidin-4-one]	10	–	50	–
NS(=O)(=O)c1ccc(N2CN(c3ccccc3)CC2=O)c(Br)c1 [Example 5, 1-Phenyl-3-(2-bromo-4-sulphamoylphenyl)imidazolidin-4-one]	5 to 10	5	50	–
NS(=O)(=O)c1ccc(N2CN(c3ccccc3)CC2=O)c(F)c1 [Example 2, 1-Phenyl-3-(2-fluoro-4-sulphamoylphenyl)-imidazolidin-4-one]	10	10	50	–
NS(=O)(=O)c1ccc(N2CN(c3ccccc3)CC2=O)c(Cl)c1 [Example 3, 1-Phenyl-3-(2-Chloro-4-sulphamoylphenyl)-imidazolidin-4-one]	5	1	50	virtually no sedative activity
